Results reported in ChEMBL document CHEMBL5725790, “Compositions and methods for the production of pyrimidine and pyridine compounds with BTK inhibitory activity” (2017).

The compounds below were run against Tyrosine-protein kinase BTK (Homo sapiens, UniProt Q06187) (assay: Enzyme Assay: The following describes a microfluidic, off-chip mobility shift kinase assay used to measure inherent potency of compounds against BTK enzyme. Compounds described by embodiments of the present invention were assayed using this protocol and the data from the same is recorded in Table 2 within the column labeled: Time Dependent BTK Enzyme Assay IC50. […] Stopped reactions were monitored at −2 PSI, −3000 V/−700 V in a LabChip 3000 plate reader from Caliper Life Sciences, a PerkinElmer Company (Hopkinton, Mass.), and the activity was measured by off-chip mobility shift assay measuring the charge/mass difference between substrate and product resulting from peptide phosphorylation. IC50 and efficacy were determined by plotting log [Inhibitor] vs. % Activity in GeneData Screener (Basel, Switzerland). Compounds described by embodiments of the present invention were assayed using this protocol and the data from the same is recorded in Table 2 within the column labeled: Time Dependent […] BTK Enzyme Assay IC50.).
Sequence of Tyrosine-protein kinase BTK (Q06187 whole entry): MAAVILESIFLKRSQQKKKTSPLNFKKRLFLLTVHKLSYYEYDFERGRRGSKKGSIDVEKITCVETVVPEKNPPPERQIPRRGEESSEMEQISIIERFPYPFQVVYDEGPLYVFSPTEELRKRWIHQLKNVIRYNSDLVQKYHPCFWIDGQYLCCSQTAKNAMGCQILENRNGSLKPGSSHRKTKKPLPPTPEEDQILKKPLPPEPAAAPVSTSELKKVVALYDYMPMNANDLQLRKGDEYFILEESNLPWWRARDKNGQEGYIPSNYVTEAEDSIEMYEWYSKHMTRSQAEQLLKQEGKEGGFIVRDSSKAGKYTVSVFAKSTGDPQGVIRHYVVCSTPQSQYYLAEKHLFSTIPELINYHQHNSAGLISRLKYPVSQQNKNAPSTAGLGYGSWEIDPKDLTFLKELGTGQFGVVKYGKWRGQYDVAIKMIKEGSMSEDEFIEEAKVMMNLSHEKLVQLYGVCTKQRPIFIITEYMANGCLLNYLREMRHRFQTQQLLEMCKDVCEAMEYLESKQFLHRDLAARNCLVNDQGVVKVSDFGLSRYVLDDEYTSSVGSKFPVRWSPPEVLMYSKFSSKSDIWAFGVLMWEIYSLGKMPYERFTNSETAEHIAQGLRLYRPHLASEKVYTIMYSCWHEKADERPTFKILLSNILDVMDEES
Work on `C=CC(=O)Nc1cccc(Oc2ncnc(N)c2-c2cnn(Cc3cccc(S(C)(=O)=O)c3)c2)c1` yielded an IC50 of less than 1 µM. Compound `CCC(=O)Nc1cccc(Oc2ccncc2-c2ccc(Oc3ccccc3)cc2)c1` has an IC50 greater than 1 µM. `N#CC1(C(=O)Nc2cccc(-c3c(N)ncnc3Oc3ccc(Oc4ccccc4)cc3)c2)CC1` showed an IC50 greater than 1 µM. Work on `Nc1ncnc(NC2CC3(C2)CN(S(=O)(=O)CCCl)C3)c1-c1ccc(Oc2ccccc2)cc1` yielded an IC50 of less than 0.1 µM. `C=CC(=O)Nc1cncc(Oc2ncnc(N)c2-c2ccc(Oc3ccc(C#N)cc3)cc2)c1` showed an IC50 of less than 1 µM. `C=CC(=O)N1CC2(CC(Nc3ncnc(N)c3-c3cnn(Cc4ccncc4)c3)C2)C1` gave an IC50 greater than 1 µM. For `CCC(=O)Nc1cccc(Oc2ccnc(C(N)=O)c2-c2ccc(Oc3ccccc3)cc2)c1`, the IC50 was greater than 1 µM. `C=CC(=O)Nc1cccc(Oc2ncnc(N)c2-c2ccc(Oc3ccccc3)cc2)c1F` was tested, and the IC50 was less than 0.1 µM.
